Reference: patent US8815945B2, “Use of bis [thiohydrazide amide] compounds such as elesclomol for treating cancers” (priority 2010, dated 2014)

Key:
M14 melanoma cells = assay: Cell viability (CCK8 assay) in M14 melanoma cells; format: cell-based; settings: Homo sapiens, confluent M14 cells, 48 h incubation
Description: M14 melanoma cells were seeded at 50,000 cells per well of 96-well plate in 100 μl of Dulbecco's […] (DMEM) supplemented with 10% fetal bovine serum. Cells were cultured at 37° C. under 5% CO2-95% air. After 16 hours of incubation, the test compound was added to the cell culture. The compound was first diluted in 100% dimethyl sulfoxide (DMSO) at 400-fold of the final concentrations actually used in the assay. The DMSO solution was next diluted 20 fold with the culture medium, and then finally added to the assay wells at another 20-fold dilution. Assay medium included the test compound with concentrations as indicated with 0.25% DMSO. Cell viability was measured with a CCK8 assay (as described in the Technical Manual for Cell Counting Kit-8, Product #CK04-11, CK04-13 and CK04-20, Dojindo Molecular Technologies, Inc. MD; Tantular, I. S. et al. Tropical Medicine and International Health, 8(6), 569-574, 2003) in the last 15 minutes after a 48 h incubation with the test compound. Each bar of the figure expresses average percent inhibition against vehicle (0.25% DMSO) control (n=4). Error bars indicate standard deviation.

metastatic melanoma = assay: Phase 3 trial in metastatic melanoma, stratified by baseline LDH; format: in vivo, patients; settings: for median PFS: elesclomol arm
Text: In a Phase 3 trial in metastatic melanoma, the level of baseline lactate dehydrogenase (LDH) in patients emerged as an important prognostic factor for treatment outcomes with elesclomol. A differential response to treatment with elesclomol was shown, based on the level of baseline LDH in the plasma, an established prognostic biomarker in melanoma and a pre-specified stratification variable in the trial.

769-P = assay: Cell viability (CellTiter Glo ATP) with elesclomol under normoxia/hypoxia, 769-P; format: cell-based; settings: 769-P cell line, which did not elevate LDH-A activity under hypoxic conditions
Description: FIG. 7 illustrates experimental work done with a variety of cells showing how high levels of HIF-1α and LDH-A activity correlate with the reduced sensitivity to elesclomol. FIGS. 7a and 7b show the reductive (i.e., pyruvate to lactate) LDH activity and HIF-1α level under normoxic and hypoxic conditions. The cells set forth in the Figures and in Table 1, below were seeded at 2 k cells/well in a 96-well plate and cultured under normoxic (20% O2) and hypoxic (0.1% O2) conditions to determine their LDH activity and HIF-1α level. LDH-A activity (measuring reduction of pyruvate to lactate by monitoring NADH at 340 nm) and HIF-1α were analyzed at 24 h. […] An experiment was then run to treat these same cell lines with vehicle or 50 nM elesclomol under normoxic (20% O2) and hypoxia (0.1% O2) conditions for 36 h (FIG. 7d.) Cell viability was evaluated by cellular ATP (CellTiter Glo, Promega).

Caki-2 cells = assay: Cell viability by CellTiter Glo ATP assay at 24 h, Caki-2 cells (FIG. 6b); format: cell-based; settings: HIF-1α-high Caki-2 cells, 2,500 cells/well
Description: (§1) To further investigate a correlation between HIF-1α and elesclomol potency, lines within the same cancer phenotype but showing distinct levels of HIF1α were evaluated. Caki-1 and -2 are renal cancer cell lines established from the same patient; Caki-2 cells constitutively express HIF-1α while the expression in Caki-1 cells is conditional. VHL protein is a negative regulator of HIF-1α, and a VHL mutation accompanies constitutive HIF-1α expression. In FIG. 6a, cells were serially diluted to the densities indicated. Cell lysates were harvested for ELISA at 24 h after seeding. In FIG. 6b, cells were seeded at 2,500 cells/well-96 plate. Cell viability was evaluated by CellTiter Glo ATP assay at 24 h.

Caki-1 cells = assay: Cell viability by CellTiter Glo ATP assay at 24 h, Caki-1 cells (FIG. 6b); format: cell-based; settings: HIF-1α-low Caki-1 cells, 2,500 cells/well
Description: as §1

CoCl2-treated M14 cells = assay: Cell viability of CoCl2-treated M14 cells with elesclomol and oxamate (FIG. 10, 11); format: cell-based; settings: 50 nM elesclomol, 50 μM CoCl2, 25 mM oxamate, 48 h
Description: By inhibiting LDH, the conversion of pyruvate to lactate is shut down, as illustrated in the left panel of FIG. 10. Oxamate, a pyruvate analog and LDH-A inhibitor, was tested on CoCl2-treated M14 cells as illustrated in the right panel of FIG. 10. Cell viability was assessed after 48 h incubation with or without elesclomol and oxamate.
Cell viability was assessed after 48 h incubation with or without 50 nM elesclomol in the presence or absence of 50 μM CoCl2 and 25 mM oxamate.

[1] = tested on: M14 (MDA-MB-435) melanoma cells; assay: Cell viability of sparse and dense M14 (MDA-MB-435) melanoma cells under normoxia or hypoxia (FIG. 5b); format: cell-based; settings: normoxia (20%) or hypoxia (0.1%), viability at 48 h by cellular ATP
Description: In hypoxic cells, stabilized HIF-1α shunts away energy carbon flow from mitochondria (illustrated graphically in FIG. 4.). The regulatory subunit of HIF-1α is stabilized under hypoxic conditions, and thus-stabilized HIF-1α forms active HIF-1 (HIF-1α/1b heterodimer), whereupon HIF-1 induces LDH-A to convert pyruvate to lactate. The potency of the bis[thiohydrazide amide] compound elesclomol on sparse and dense melanoma cells was assayed under hypoxic and normoxic conditions. Total HIF-1α (cytosolic+nuclear, FIG. 5a) and cell viability of M14 (MDA-MB-435) melanoma cells (FIG. 5b) was evaluated at 12 h and 48 h by ELISA (R&D systems) and cellular ATP levels (CellTiter Glo-Promega), respectively, under normoxia (20%) or hypoxia (0.1%) with sparse (2 k cells/well) or dense (20 k cells/well) in 96-well plates.

HIF-1α = format: cell-based

Structure (SMILES)	IC50 (M14 melanoma cells) [µM]	survival endpoint (metastatic melanoma; elevated LDH population)	median PFS (metastatic melanoma; elevated LDH population, 32% of patients) [months]	PFS HR (metastatic melanoma; elevated LDH population, p=0.549)	overall survival (metastatic melanoma; normal LDH population)	safety profile (metastatic melanoma; normal LDH population)	median PFS (metastatic melanoma; normal LDH population, 68% of patients) [months]	PFS HR (metastatic melanoma; normal LDH population, p=0.027)	change in sensitivity to elesclomol under hypoxic conditions (769-P)	sensitivity of cells to elesclomol (Caki-2 cells)	sensitivity of cells to elesclomol (Caki-1 cells)	elesclomol activity upon co-treatment with oxamate (cell viability) (CoCl2-treated M14 cells)	potency of elesclomol, normoxia vs hypoxia [1]	HIF-1α level (HIF-1α)	reductive LDH activity (HIF-1α)
CN(NC(=O)CC(=O)NN(C)C(=S)c1ccccc1)C(=S)c1ccccc1 [elesclomol, N-malonyl-bis(N′-methyl-N′-thiobenzoylhydrazide)]	> 12.5	negative impact	1.8	1.10	no impact on overall survival	acceptable safety profile	3.6	0.76	no change	resistant	sensitive	remains active	increased potency	–	–
[Cl-].[Cl-].[Co+2] [CoCl2]	–	–	–	–	–	–	–	–	–	–	–	–	–	increases	increased
